Results published in BindingDB's records for doi:10.1016/j.bmcl.2009.06.027 (Grupo Uriach, 2009).

Assay: Inhibition of wild type CXCR1 transfected in mouse L1.2 cells assessed as inhibition of CXCL8-induced cell migration pretreated for 15 mins measured after 4 hrs

Row | IC50 [nM] | Compound
1 | 12 | O=C(O)Cc1ccccc1Nc1c(Cl)cccc1Cl [{2-[(2,6-dichlorophenyl)amino]phenyl}acetic acid]

Assay: Inhibition of CXCL8-induced chemotaxis in human polymorphonuclear leukocyte pretreated for 15 mins measured after 4 hrs by cell migration assay

Row | Compound | IC50 [nM]
2 | Cc1ccc(C(=O)c2ccc(CC(=O)O)n2C)cc1 [2-(1-methyl-5-(4-methylbenzoyl)-1H-pyrrol-2-yl)acetic acid] | 90
3 | Cc1ccc(Cl)c(Nc2ccccc2CC(=O)O)c1Cl [2-(2-(2,6-dichloro-3-methylphenylamino)phenyl)acetic acid] | 500
4 | O=C(O)Cc1ccccc1Cc1c(Cl)cccc1Cl [2-(2-(2,6-dichlorobenzyl)phenyl)acetic acid] | > 1000
5 | O=C(O)Cc1ccccc1Nc1c(F)cccc1F [2-(2-(2,6-difluorophenylamino)phenyl)acetic acid] | > 1000
6 | Cc1ccccc1Nc1ccccc1CC(=O)O [2-(2-(o-tolylamino)phenyl)acetic acid] | > 1000
7 | O=C(O)Cc1cccc(C(=O)c2ccccc2)c1 [2-(3-benzoylphenyl)acetic acid] | > 1000
8 | CS(=O)(=O)NC(=O)Cc1ccccc1Oc1ccccc1F [2-[2-(2-Fluorophenoxy)phenyl]-N-(methylsulfonyl)acetamide] | 50
9 | Cc1cccc(C)c1NC(=O)C(C)c1ccccc1Nc1c(Cl)cccc1Cl (stereo unspecified) [2-{2-[(2,6-Dichlorophenyl)amino]phenyl}-N-(2,6-dimethylphenyl)propanamide] | 600
10 | CC(C(=O)NCCC[N+](C)(C)C)c1ccccc1Nc1c(Cl)cccc1Cl (stereo unspecified) [3-(2-(2-(2,6-dichlorophenylamino)phenyl)propanamido)-N,N,N-trimethylpropan-1-aminium iodide] | > 1000
11 | O=C(O)Cc1ccccc1Oc1ccccc1 [(2-Phenoxy-phenyl)-acetic acid] | > 1000
12 | O=C(O)Cc1ccccc1Nc1ccccc1 [(2-Phenylamino-phenyl)-acetic acid] | > 1000
13 | CC(C)Cc1ccc(CC(=O)O)cc1 [Ibufenac] | > 1000
14 | CC(C(=O)NC(C)(C)C)c1ccccc1Nc1c(Cl)cccc1Cl (stereo unspecified) [N-(tert-Butyl)-2-{2-[(2,6-dichlorophenyl)amino]phenyl}propanamide] | 650
15 | O=C(O)Cc1ccccc1Nc1cc(Cl)ccc1Cl [[2-(2,5-Dichloro-phenylamino)-phenyl]-acetic acid] | 25
16 | O=C(O)Cc1ccccc1Oc1ccccc1Cl [[2-(2-Chloro-phenoxy)-phenyl]-acetic acid] | 500
17 | O=C(O)Cc1ccccc1Nc1ccccc1Cl [[2-(2-Chloro-phenylamino)-phenyl]-acetic acid] | 400
18 | COc1ccc2c(c1)c(CC(=O)O)c(C)n2C(=O)c1ccc(Cl)cc1 [indometacin] | 50

Continued by falling IC50, values first:

Row | IC50 [nM] | Compound
19 | 25 | CC(C(=O)NCCCN(C)C)c1ccccc1Nc1c(Cl)cccc1Cl (stereo unspecified) [2-{2-[(2,6-Dichlorophenyl)amino]phenyl}-N,N'-[3,3-(dimethylamino)propyl]propanamide]
20 | 20 | CC(C(=O)NCCO)c1ccccc1Nc1c(Cl)cccc1Cl (stereo unspecified) [2-{2-[(2,6-Dichlorophenyl)amino]phenyl}-N-(2-hydroxyethyl)propanamide]
21 | 13 | O=C(O)Cc1ccccc1Oc1ccccc1F [2-(2-(2-fluorophenoxy)phenyl)acetic acid]
22 | 13 | CC(C(=O)NS(C)(=O)=O)c1ccccc1Nc1c(Cl)cccc1Cl (stereo unspecified) [2-{2-[(2,6-Dichlorophenyl)amino]phenyl}-N-(methylsulfonyl)propanamide]
23 | 12 | CC(C(N)=O)c1ccccc1Nc1c(Cl)cccc1Cl (stereo unspecified) [2-{2-[(2,6-Dichlorophenyl)amino]phenyl}propanamide]
24 | 10 | CC(C(=O)O)c1ccccc1Nc1c(Cl)cccc1Cl (stereo unspecified) [2-{2-[(2,6-Dichlorophenyl)amino]phenyl}propanoic acid]
25 | 9 | O=C(O)Cc1ccccc1Nc1ccccc1F [2-(2-(2-fluorophenylamino)phenyl)acetic acid]
26 | 8 | O=C(O)Cc1ccccc1Nc1c(Cl)cccc1Cl [{2-[(2,6-dichlorophenyl)amino]phenyl}acetic acid]
